Earlier results on one compound are cited in patent US20120087953A1, “PHARMACEUTICAL COMPOSITIONS OF ACTIVE PHARMACEUTICAL INGREDIENT COMPRISING SULPHONYLUREA MOIETY WITH EXCELLENT DISSOLUTION PROPERTIES” (LEK PHARMACEUTICALS D.D., priority 2009, published 2012).

SMILES strings stand for the structures.

For this data set the following is noted: acidic medium, 37° C.

In the case of `CCC1=C(C)CN(C(=O)NCCc2ccc(S(=O)(=O)NC(=O)N[C@H]3CC[C@H](C)CC3)cc2)C1=O` [glimepiride], the solubility result is reported as “less than 0.001 mg/mL”.
